Measurements as given in patent US8802104B2, “Parathyroid hormone receptor activation and stem and progenitor cell expansion” (The General Hospital Corporation, priority 2002, dated 2014).
Entries after “also recorded” stand apart in the source; their conditions may differ.

What was measured:
[1] = system: hematopoietic progenitors (CFU-C); assay: In vivo PTH administration: CFU-C assay; design: species or system C57Bl/6 mice; conditions: four weeks PTH; P=0.780, FIG. 5g
Experimental: Mononuclear cells were isolated from the bone marrow and cultured at 10^4 cells/ml in the following medium: 0.9% methylcellulose, 15% FBS, 1% BSA, 10 μg/ml rh insulin, 200 μg/ml human transferrin, 10^−4 M 2-mercaptoethanol, 2 mM L-glutamine, 50 ng/ml rmSCF, 10 ng/ml rmIL-3, 10 ng/ml rhIL-6 and 3 units/ml rhEpo (M3434; Stem Cell Technologies, Vancouver, Canada). At day 10, the total number of colonies were counted and reported as total CFU-Cs.
For PTH administration, 6-8 week old wild type C57/B male mice were used. Rat PTH (1-34) (80 μg/Kg of body weight) was injected intraperitoneally 5×/week for 4 weeks (n=5). Control mice (n=4) were injected with an equivalent volume of vehicle. At the end of the treatment period, ionized serum calcium was measured by the Ciba/Corning 634 Ca^++/pH analyzer, and, after euthanasia, the hind limbs and forelimbs were dissected and utilized for cytologic and histologic analysis.
(§1) As treatment of stromal cells with PTH led to an increase in the ability of the stromal cell population to support hematopoietic stem cells, it was investigated whether these effects could be recapitulated in vivo. Wild-type C57Bl/6 mice were injected daily with PTH using an intermittent dosing schedule known to increase osteoblasts, and the frequencies of LTC-ICs in the bone marrow were measured. […]

[2] = system: HSCs (CD45.2+ cells in bone marrow); assay: Competitive transplantation into secondary recipients; assay type: in vivo; conditions: donor mice PTH treated four weeks; read 6 weeks after transplant; P<0.05, FIG. 5f
Experimental: (§2) For the competitive transplant studies, 4×10^5 BM MNCs, obtained from CD45.1^+ B6.SJL (Jackson Laboratories, Bar Harbor, Me.) mice were mixed with 2×10^5 cells from mock injected or PTH injected CD45.2^+ C57Bl/6 mice. Recipient B6.SJL mice that had been lethally irradiated 24 hours previously with 10Gy of radiation (^137Cs source) were injected with cells. After 6 weeks, the mice were euthanized with CO2, the BM was removed and flushed with fully supplemented Iscove's Medium. The relative contribution of engraftment from the different cell sources was assessed by flow cytometry utilizing anti-CD45.1 and anti-CD45.2 antibodies (Pharmingen, San Diego, Calif.). To assess the effects of PTH administration post transplantation, recipient C57Bl/6 mice were lethally irradiated and then injected with 2×10^5 BM MNCs from a donor B6.SJL mouse. Twenty-four hours following the injection of the cells, mice were injected with PTH or mock injected as described above for four weeks.
as §1

[3] = system: C57Bl/6 stroma and hematopoietic cells (LTC-IC); assay: LTC-IC assay on wild-type stroma, in vitro treatment with PTH; assay type: cell-based, mouse
Experimental: Murine bone marrow stromal cells from confluent cultures were irradiated (15Gy) and plated at a concentration of 20,000 cells/well in 96-well plates in long-term culture medium. Cells were then seeded into the plates in two-fold serial limiting dilutions and cultured at 33° C./5% CO2 in a humidified atmosphere. Cultures were maintained for 5 weeks, changing half of the medium in the wells weekly. Following this, the medium was replaced with methylcellulose containing medium supplemented with recombinant cytokines as described above, then scored for colony growth ten days following the addition of the medium.
LTC-IC assays were performed using wild-type stroma and hematopoietic cells. […] After fixation in 10% Neutral Formalin Buffer for 30 minutes at room temperature, alkaline phosphatase activity was determined histochemically by incubation for 45 minutes at RT with a mixture of 0.1 mg/ml naphthol AS-MX phosphate (Sigma), 0.5% N,N-dimethylformamide, 0.6 mg/ml red violet LB salt (Sigma) in 0.1 M Tris-HCl (pH 8.5). Alkaline phosphatase positive cells were counted at day 10 of culture, when the cultures were subconfluent and individual cells could be identified. […]

[4] = system: primary murine stromal cell cultures; assay: Alkaline phosphatase staining of primary stromal cell cultures; assay type: cell-based, mouse; conditions: after 14 days, PTH vs vehicle, FIG. 5b
Experimental: LTC-IC assays were performed using wild-type stroma and hematopoietic cells. Rat PTH (1-34) (Bachem, Torrance, Calif.) or vehicle was added to each media change either during stroma establishment and/or during culture maintenance to a final concentration of 10^−7 M. Medium was changed every three days for two weeks or until stromal layers became confluent. For alkaline phosphatase staining, primary mononuclear cells obtained as described above from wild-type and or transgenic littermates were then cultured in 24-well plates at an initial concentration of 5×10^6 cells/ml. At 10 or 14 days after seeding, medium was suctioned off, and the adherent cells were gently rinsed twice in PBS. After fixation in 10% Neutral Formalin Buffer for 30 minutes at room temperature, alkaline phosphatase activity was determined histochemically by incubation for 45 minutes at RT with a mixture of 0.1 mg/ml naphthol AS-MX phosphate (Sigma), 0.5% N,N-dimethylformamide, 0.6 mg/ml red violet LB salt (Sigma) in 0.1 M Tris-HCl (pH 8.5). Alkaline phosphatase positive cells were counted at day 10 of culture, when the cultures were subconfluent and individual cells could be identified. For inhibition of γ-secretase activity, 30 μM of γ-secretase inhibitor II (Calbiochem) dissolved in DMSO was added to the long-term culture medium and LTC-IC assays were performed as described. […]

[5] = PTH administration following myeloablation and bone marrow transplantation: survival; assay type: in vivo, C57Bl/6 mice; conditions: at 30 days; lethal irradiation, limiting numbers of donor bone marrow cells, pulse dosing of PTH after transplant; FIG. 6
Experimental: as §2
Assessing whether PPR stimulation could affect models relevant to the clinical use of stem cells in humans, the impact of PTH administration on animals undergoing myeloablation and bone marrow transplantation was assessed. Limiting numbers of bone marrow derived donor cells were used to mimic a setting of therapeutic need. […]

Substance: Rat PTH (1-34)
- level of hematopoietic progenitors by CFU-C assay [1]: did not affect
- increase in HSCs, competitive transplantation [2]: > 2 fold
- ability of stroma to support LTC-ICs ([3]; PTH 10^-7 M present during expansion of the stromal population, P=0.004, FIG. 5a): enhanced the ability of the stroma to support LTC-ICs; also recorded: increasing LTC-IC
- LTC-IC support ([3]; stromal cells expanded in the absence of PTH, or PTH added at the same time as the hematopoietic cells): the effect was not seen
- alkaline phosphatase positive (osteoblastic) cells [4]: an increase in alkaline positive cells
- survival [5]: 100%
